Experimental data: patent US12369583B2, “Nematicidal compositions” (SYNGENTA CROP PROTECTION AG, priority 2018, dated 2025)

Columns and labels:
[1] = system: Reniform Nematode (Rotylenchulus reniformis); assay: Reniform Nematode efficacy on soybean, soil nematode count compared to check; format: in vivo
[2] = system: Root Knot Nematode (Meloidogyne incognita) eggs; assay: Evaluation of Root Knot Nematode egg hatch; format: cell-based
[3] = system: Soybean Cyst Nematode (Heterodera glycines) eggs; assay: Evaluation of Soybean Cyst Nematode egg hatch; format: cell-based
[4] = system: Lesion Nematode (Pratylenchus Spp.); assay: Lesion Nematode control in corn, stained root tissue; format: in vivo
Excerpt: Corn root tissue was stained using acid fuchsin/methyl blue to assess for endoparasitic, endo/ectoparasitic, and semi endoparasitic nematodes that have entered the root system, using standard methodology. The effect of pydiflumetofen was compared to fluopyram.

[5] = system: Soybean Cyst Nematode (Heterodera glycines); assay: Control of Heterodera glycines on soybean in a greenhouse, seed treatment; format: in vivo
Excerpt: Methodology for evaluating control of Heterodera glycines at all life stages on soybean in a greenhouse.
Five thousand Heterodera glycine eggs where placed in a 1 inch hole in the center of 3.5 inch×8 inch deep plastic pots. The seeds were inoculated first when applying the active compound as a seed treatment. The treated seed was placed in the center hole and covered up with sterilized top soil. Each pot was watered by hand, with approximately 50 mls of water applied to each pot once per day. 35 day after planting, the soil was gently rinsed from the roots of the emerged plants and place in a 20 mesh over a 60-mesh sieve. The root system was blasted with water to remove mature females. The 20-mesh sieve removed. The females were washed to the bottom of the 60-mesh sieve and rinsed into a tube for counting under a stereoscope. For root penetration experiments, the roots of the plants were removed from the pots at 7-14 days after planting, rinsed clean of soil, and stained with acid fuchsin stain. Stained nematodes in the roots were counted using an electronic stereoscope.
The action of pydiflumetofen against soybean syst nematode (SCN; Heterodera glycines) and its effect on soybean plants was assessed out as described previously, and compared to that of fluopyram. The number of SCN per stained root was counted, and the mean root weight per plant calculated, thus enabling the number of SCN per gram of root to be calculated.

[6] = system: Soybean Cyst Nematode (Heterodera glycines) on Soybean; assay: Soybean yield data, seed treatment (trials 4-6); format: in vivo
[7] = system: Lesion Nematode (Pratylenchus brachyurus); assay: Lesion Nematode efficacy on soybean, stained roots; format: in vivo
Excerpt: Soybean plant roots were stained using acid fuchsin/methyl blue to assess for endoparasitic, endo/ectoparasitic, and semi endoparasitic nematodes that have entered the root system, using standard methodology.

[8] = system: Sting (Belonolaimus longicaudatus); assay: In vitro dose response assay against Sting nematode; format: cell-based
Excerpt: (§1) Lance (Hoplolaimus Spp.) and Sting (Belonolaimus longicaudatus) Nematode In Vitro Assay Measuring Dose Response of APN Against Sting and Lance Nematode.

[9] = system: Spiral (Helicotylenchus Spp.); assay: Multiple nematode species on cotton, soil counts: Spiral; format: in vivo; conditions: 0.15 mg ai/seed, measured 71 days after planting
[10] = system: Root Knot (Meloidogyne incognita); assay: Multiple nematode species on cotton, soil counts: Root Knot; format: in vivo; conditions: 0.15 mg ai/seed, measured 71 days after planting
[11] = system: Root Knot Nematode (Meloidogyne incognita); assay: Root Knot Nematode control on soybean, gall count and rating; format: in vivo
Excerpt: Root Knot Nematode (Meloidogyne incognita) Methodology for Evaluating Root Knot Nematode Gall Count and Rating Process The roots of the plants were removed from the soil. The root system was then sprayed with water to remove remaining soil. The roots were spread out on a tray or counter top and the rate of galling or place each root system under a magnification light and count galls. For gall assessment ratings, a rating on a scale of 0-10 scale was given when compared against a standard gall rating chart. Gall count was also assessed.

Lance (Hoplolaimus Spp.) = assay: In vitro dose response assay against Lance nematode; format: cell-based
Excerpt: as §1

[12] = system: Reniform Nematode (Rotylenchulus reniformis); assay: Multiple nematode species on cotton, soil counts: Reniform; format: in vivo; conditions: 0.15 mg ai/seed, measured 71 days after planting
[13] = Series 2 Trial 1, 0.075 mg ai/seed
[14] = Series 2 Trial 1, 0.15 mg ai/seed
[15] = Series 2 Trial 1, 0.30 mg ai/seed
[16] = Series 1 Trial 1, 0.0375 mg ai/seed
[17] = Series 1 Trial 1, 0.075 mg ai/seed
[18] = Series 1 Trial 1, 0.15 mg ai/seed
[19] = Series 1 Trial 2, 0.075 mg ai/seed
[20] = Series 1 Trial 2, 0.15 mg ai/seed
[21] = Sodium hypochlorite 30%, no ppm concentration printed

CNC(=O)O/N=C/C(C)(C)SC [Aldicarb]
Nematode Reduction Compared to Check (mean difference in soil nematode count) ([1]; in-furrow (5.6 Kg/Ha)): −1937

O=S(=O)(CCC(F)=C(F)F)c1ncc(Cl)s1 [Fluensulfone]
Percent Egg Hatch Reduction ([2]; 1 ppm): −3.5% | Percent Egg Hatch Reduction ([2]; 10 ppm): −0.9% | Percent Egg Hatch Reduction ([2]; 100 ppm): 48.8% | Percent Egg Hatch Reduction ([3]; 1 ppm): −2.1% | Percent Egg Hatch Reduction ([3]; 10 ppm): −1.5% | Percent Egg Hatch Reduction ([3]; 100 ppm): 0.5%

O=C(NCCc1ncc(C(F)(F)F)cc1Cl)c1ccccc1C(F)(F)F [Fluopyram, reference compound]
Lesion Nematode per gram of Root ([4]; 0.25 mg ai/seed): 211 | Lesion Nematodes within root system ([4]; 0.25 mg ai/seed): 108 | Mean SCN/root [5, 13]: 20.8 | No. SCN/g root tissue [5, 13]: 12.1 | Mean SCN/root [5, 14]: 17.7 | No. SCN/g root tissue [5, 14]: 30.3 | Mean SCN/root [5, 15]: 7.3 | No. SCN/g root tissue [5, 15]: 23.4 | Percent Egg Hatch Reduction ([2]; 1 ppm): 1.1% | Percent Egg Hatch Reduction ([2]; 10 ppm): 55.9% | Percent Egg Hatch Reduction ([2]; 100 ppm): 54.7% | Mean Difference in Yield Compared to Checks ([6]; Trial 4, 0.15 mg ai/seed): −3.5 Bu/Ac | Mean Difference in Yield Compared to Checks ([6]; Trial 5, 0.15 mg ai/seed): +5.4 Bu/Ac | Mean Difference in Yield Compared to Checks ([6]; Trial 6, 0.15 mg ai/seed): +2.9 Bu/Ac | Percent Egg Hatch Reduction ([3]; 1 ppm): −1.3% | Percent Egg Hatch Reduction ([3]; 10 ppm): 4.5% | Percent Egg Hatch Reduction ([3]; 100 ppm): 61.9% | Nematode Reduction Compared to Check (mean difference in soil nematode count) ([1]; 0.15 mg/seed): −3146

CON(C(=O)c1cn(C)nc1C(F)F)C(C)Cc1c(Cl)cc(Cl)cc1Cl (centres unmarked) [Pydiflumetofen, 3-(difluoromethyl)-N-methoxy-1-methyl-N-[1-methyl-2-(2,4,6-trichloro-phenyl)ethyl]-1H-pyrazole-4-carboxamide]
Lesion Nematode per gram of Root ([7]; 0.0375 mg ai/seed): 164.3 | Lesion Nematodes w/l root ([7]; 0.0375 mg ai/seed): 44.9 | Lesion Nematode per gram of Root ([7]; 0.075 mg ai/seed): 141.5 | Lesion Nematodes w/l root ([7]; 0.075 mg ai/seed): 38.3 | Lesion Nematode per gram of Root ([7]; 0.15 mg ai/seed): 105.3 | Lesion Nematodes w/l root ([7]; 0.15 mg ai/seed): 32.3 | Effect on nematode numbers (in words) [4]: reduce nematode numbers | Lesion Nematode per gram of Root ([4]; 0.4 mg ai/seed): 389 | Lesion Nematodes within root system ([4]; 0.4 mg ai/seed): 302 | Lesion Nematode per gram of Root ([4]; 0.5 mg ai/seed): 105 | Lesion Nematodes within root system ([4]; 0.5 mg ai/seed): 124 | Cysts per Gram of Root [5, 16]: 147.9 | Mature SCN Cysts [5, 16]: 24.0 | Stained Juveniles w/l root [5, 16]: 22.5 | Cysts per Gram of Root [5, 17]: 167.5 | Mature SCN Cysts [5, 17]: 21.3 | Stained Juveniles w/l root [5, 17]: 19.0 | Cysts per Gram of Root [5, 18]: 105.0 | Mature SCN Cysts [5, 18]: 16.3 | Stained Juveniles w/l root [5, 18]: 12.5 | SCN Within Root [5, 19]: 17.5 | Soybean Cyst Nematodes per Gram of Root [5, 19]: 128 | SCN Within Root [5, 20]: 5.0 | Soybean Cyst Nematodes per Gram of Root [5, 20]: 29.6 | SCN Cysts per Root ([5]; Series 1 Trial 3, 0.15 mg ai/seed): 10.4 | SCN Cysts per Root ([5]; Series 1 Trial 3, 0.30 mg ai/seed): 5.5 | Mean SCN/root [5, 13]: 52.3 | No. SCN/g root tissue [5, 13]: 30.4 | Mean SCN/root [5, 14]: 37.0 | No. SCN/g root tissue [5, 14]: 16.9 | Mean SCN/root [5, 15]: 35.2 | No. SCN/g root tissue [5, 15]: 15.2 | Percent Egg Hatch Reduction ([2]; 1 ppm): 1.7% | Percent Egg Hatch Reduction ([2]; 10 ppm): 12.8% | Percent Egg Hatch Reduction ([2]; 100 ppm): 30.6% | Mean Difference in Yield Compared to Checks ([6]; Trial 4, 0.075 mg ai/seed): +3.0 Bu/Ac | Mean Difference in Yield Compared to Checks ([6]; Trial 5, 0.075 mg ai/seed): +3.7 Bu/Ac | Mean Difference in Yield Compared to Checks ([6]; Trial 6, 0.075 mg ai/seed): +7.5 Bu/Ac | Percentage of Dead Nematodes ([8]; exposure 1 hours, 0.1 ppm): 6.3 Percentage | Percentage of Dead Nematodes ([8]; exposure 1 hours, 10 ppm): 5.9 Percentage | Percentage of Dead Nematodes ([8]; exposure 1 hours, 100 ppm): 11.3 Percentage | Percentage of Dead Nematodes ([8]; exposure 24 hours, 0.1 ppm): 4.7 Percentage | Percentage of Dead Nematodes ([8]; exposure 24 hours, 10 ppm): 59.5 Percentage | Percentage of Dead Nematodes ([8]; exposure 24 hours, 100 ppm): 42.9 Percentage | Percentage of Dead Nematodes ([8]; exposure 48 hours, 0.1 ppm): 29.3 Percentage | Percentage of Dead Nematodes ([8]; exposure 48 hours, 10 ppm): 56.3 Percentage | Percentage of Dead Nematodes ([8]; exposure 48 hours, 100 ppm): 58 Percentage | Percentage of Dead Nematodes ([8]; exposure 72 hours, 0.1 ppm): 34.9 Percentage | Percentage of Dead Nematodes ([8]; exposure 72 hours, 10 ppm): 81.1 Percentage | Percentage of Dead Nematodes ([8]; exposure 72 hours, 100 ppm): 97.1 Percentage | Juveniles per 100 cc s Soil [9]: 254 | Percent Egg Hatch Reduction ([3]; 1 ppm): 4.7% | Percent Egg Hatch Reduction ([3]; 10 ppm): 34.7% | Percent Egg Hatch Reduction ([3]; 100 ppm): 64.0% | Juveniles per 100 cc s Soil [10]: 132 | Root Knot Nematode Galling (0-10 scale) ([11]; 0.075 mg ai/seed): 6.8 | Root Knot Nematode Galls per Root ([11]; 0.075 mg ai/seed): 52.6 | Root Knot Nematode Galling (0-10 scale) ([11]; 0.15 mg ai/seed): 1.5 | Root Knot Nematode Galls per Root ([11]; 0.15 mg ai/seed): 11.2 | Percentage of Dead Nematodes (Lance (Hoplolaimus Spp.); exposure 1 hours, 0.1 ppm): 12.7 Percentage | Percentage of Dead Nematodes (Lance (Hoplolaimus Spp.); exposure 1 hours, 10 ppm): 37.9 Percentage | Percentage of Dead Nematodes (Lance (Hoplolaimus Spp.); exposure 1 hours, 100 ppm): 74.8 Percentage | Percentage of Dead Nematodes (Lance (Hoplolaimus Spp.); exposure 24 hours, 0.1 ppm): 68.5 Percentage | Percentage of Dead Nematodes (Lance (Hoplolaimus Spp.); exposure 24 hours, 10 ppm): 81.6 Percentage | Percentage of Dead Nematodes (Lance (Hoplolaimus Spp.); exposure 24 hours, 100 ppm): 23.9 Percentage | Percentage of Dead Nematodes (Lance (Hoplolaimus Spp.); exposure 48 hours, 0.1 ppm): 41 d Percentage | Percentage of Dead Nematodes (Lance (Hoplolaimus Spp.); exposure 48 hours, 10 ppm): 93.8 Percentage | Percentage of Dead Nematodes (Lance (Hoplolaimus Spp.); exposure 48 hours, 100 ppm): 74.8 Percentage | Percentage of Dead Nematodes (Lance (Hoplolaimus Spp.); exposure 72 hours, 0.1 ppm): 32.9 Percentage | Percentage of Dead Nematodes (Lance (Hoplolaimus Spp.); exposure 72 hours, 10 ppm): 93.8 Percentage | Percentage of Dead Nematodes (Lance (Hoplolaimus Spp.); exposure 72 hours, 100 ppm): 77.5 Percentage | Nematode Reduction Compared to Check (mean difference in soil nematode count) ([1]; 0.075 mg/seed): −2912 | Juveniles per 100 cc s Soil ([12]; Reniform (adult)): 2.8 | Juveniles per 100 cc s Soil ([12]; Reniform (juvenile)): 1752

OCl [Sodium hypochlorite 30%, Sodium hypochlorite]
Percent Egg Hatch Reduction [2, 21]: 100.0% | Percent Egg Hatch Reduction [3, 21]: 100.0%

c1ccc(-c2noc(-c3cccs3)n2)cc1 [Tioxazafen]
Percent Egg Hatch Reduction ([2]; 1 ppm): −1.9% | Percent Egg Hatch Reduction ([2]; 10 ppm): −0.8% | Percent Egg Hatch Reduction ([2]; 100 ppm): 4.4% | Percent Egg Hatch Reduction ([3]; 1 ppm): 0.4% | Percent Egg Hatch Reduction ([3]; 10 ppm): −0.5% | Percent Egg Hatch Reduction ([3]; 100 ppm): −0.9%
